# Literature values as cited in patent US20230263874A1, “TUMOR ANTIGENS FOR LIVER CANCER IMMUNOTHERAPY” (ISTITUTO NAZIONALE TUMORI IRCCS - FONDAZIONE G. PASCALE, priority 2020, published 2023).
# System: hepatocellular carcinoma
# Conditions: second-line treatment, advanced liver cancer not responded to sorafenib; cited from earlier work
structure (smiles),measurement,value
CNC(=O)c1cc(Oc2ccc(NC(=O)Nc3ccc(Cl)c(C(F)(F)F)c3)c(F)c2)ccn1 [Regorafenib],improvement in overall survival,2.8 month
same,reduction risk of death,38%
